# From patent US20240197650A1, “Combination of Cinnamaldheyde and Eugenol with Antimycotic Activity” (priority 2021, published 2024)
# Tests used:
# [1] = test system: Candida spp.; assay: Disk diffusion method, 18 Candida spp. strains (distribution); type: cell-based
# Description: (§1) A total of eighteen strains belonging to Candida spp. (15 C. albicans, 2 C. glabrata and 1 C. lusitaniae) derived from a collection of vaginal strains isolated in CHROMAgar Candida (BD Italia SpA, Milan, Italy) were grown on Potato Dextrose Agar (Oxoid Thermofisher SpA, Milan, Italy) at 35° C. for 24 hours.
# (§2) Colonies were re-suspended in sterile saline at a density corresponding to #0.5 McFarland (opacity standard). #0.5 McF correspond to 1.4×10^6 colony forming units (CFU)/ml for C. albicans, 4.3×10^6 CFU/ml for C. glabrata and 3×10^6 CFU/ml for C. lusitaniae [Guinea J. et al., Rapid antifungal susceptibility determination for yeast isolates by use of Etest performed directly on blood samples from patients with fungemia, J Clin Microbiol. 2010 June, 48(6): 2205-12]. Then, the sensitivity test vs the two oils has been performed. The disk diffusion method was carried out as follows: for each tested strain, 4 plates of Potato Dextrose Agar (PDA) were seeded in 3 directions to produce a confluent growth, by sterile swab soaked in the cell suspension. Sorbent paper disks (Oxoid Thermofisher SpA, Milan, Italy) 6.0 mm diameter were placed on the agar surface and added with 10 μl of each essential oil. Disks soaked with 10 μg amphotericin B were used as positive control. Also disks of chlortrimazole (from 10 μg to 40 μg) were used, but the inhibition rings could not be clearly read due to the formation of a re-growth ring. Disks soaked with 10 μl pure dimethylsulphoxide (DMSO, Sigma-Aldrich, St. Louis, MO, USA) were used as negative control. The plates were incubated at 35° C. for 24 hours. All the experiments were carried out in duplicate. The inhibiting effect of the oils were considered to be effective when the inhibition ring was equal or greater than that caused by amphotericin B. For amphotericin B, an inhibition zone (IZ)≥15 mm was considered as “sensitivity”, from 10 to 14 mm as “intermediate sensitivity” and <10 mm as “resistance” [Kauser et al., Agreement of Direct Antifungal Susceptibility Testing from Positive Blood Culture Bottles with Conventional Method for Candida Species, J Clin Microbiol. 2016 February, 54(2):343-34].
# [2] = test system: C. albicans; assay: Disk diffusion method, C. albicans strains; type: cell-based
# Description: as §1, §2
# [3] = test system: C. glabrata; assay: Disk diffusion method, C. glabrata strains; type: cell-based
# Description: as §1, §2
# [4] = test system: C. lusitaniae; assay: Disk diffusion method, C. lusitaniae strain; type: cell-based; settings: C. lusitaniae 1
# Description: as §1
# Colonies were re-suspended in sterile saline at a density corresponding to #0.5 McFarland (opacity standard). #0.5 McF correspond to 1.4×10^6 colony forming units (CFU)/ml for C. albicans, 4.3×10^6 CFU/ml for C. glabrata and 3×10^6 CFU/ml for C. lusitaniae [Guinea J. et al., Rapid antifungal susceptibility determination for yeast isolates by use of Etest performed directly on blood samples from patients with fungemia, J Clin Microbiol. 2010 June, 48(6): 2205-12]. Then, the sensitivity test vs the two oils has been performed. The disk diffusion method was carried out as follows: for each tested strain, 4 plates of Potato Dextrose Agar (PDA) were seeded in 3 directions to produce a confluent growth, by sterile swab soaked in the cell suspension. Sorbent paper disks (Oxoid Thermofisher SpA, Milan, Italy) 6.0 mm diameter were placed on the agar surface and added with 10 μl of each essential oil. Disks soaked with 10 μg amphotericin B were used as positive control. Also disks of chlortrimazole (from 10 μg to 40 μg) were used, but the inhibition rings could not be clearly read due to the formation of a re-growth ring. Disks soaked with 10 μl pure dimethylsulphoxide (DMSO, Sigma-Aldrich, St. Louis, MO, USA) were used as negative control. The plates were incubated at 35° C. for 24 hours. All the experiments were carried out in duplicate. […]
# [5] = test system: Candida spp.; assay: Microdilution method MIC/MFC, 18 Candida spp. strains (distribution); type: cell-based; settings: 18 strains
# Description: as §1
# (§3) The antifungal activity of amphotericin B and of cinnamaldheyde and eugenol were tested with the microdilution method as reported by Bona et al. [Bona et al., Sensitivity of Candida albicans to essential oils: are they an alternative to antifungal agents? J Appl Microbiol. 2016 December, 121(6): 1530-1545] with small changes. All the 18 Candida spp strains were tested. For each isolated, the colonies deriving from cultures (24 hours) in PDA were diluted in saline up to a concentration of 2×10^3 CFU/ml (so obtaining a final concentration of 10 3CGU/ml). Cinnamaldehyde and eugenol were dissolved in DMSO (80% oil, 20% DMSO), then diluted in Sabouraud broth up to a concentration of 8% v/v (so obtaining a final concentration of 4% v/v). Then, in a 96-well microtiter plate ½ serial dilution of amphotericin B (range 32-0.032 μg/ml, for a final range of 16-0.016 μg/ml) and of the essential oils (range 8-0.004% v/v, for a final range of 4-0.002% v/v) were carried out. Each well was then injected with 100 μl of cell suspension. The negative control contained DMSO diluted in Sabouraud broth (at 2% v/v, for a final concentration of 1% v/v). […] Each experiment was carried out in duplicate. The Minimum Inhibitory Concentration (MIC) was determined as the concentration of the oils in the first well which is not cloudy. The Minimum Fungicidal Concentration (MFC) was determined as the lowest concentration of the oils, with the agar culture showing the complete absence of fungal growth. The determination of the amphotericin B MIC was carried out also according to the EUCAST guidelines (cutoff 1 μg/ml) [https://eucast.org/astoffungi/clinicalbreakpointsforantifungals], all the results being consistent.
# [6] = test system: C. albicans; assay: Microdilution method MIC/MFC, C. albicans strains; type: cell-based
# Description: as §1, §3
# [7] = test system: C. glabrata; assay: Microdilution method MIC/MFC, C. glabrata strains; type: cell-based
# Description: as §1, §3
# [8] = test system: C. lusitaniae; assay: Microdilution method MIC/MFC, C. lusitaniae strain; type: cell-based; settings: C. lusitaniae 1
# Description: as §1, §3
# [9] = Additional essential oils in combination with cinnamaldehyde or eugenol; settings: antimycotic activity
# [10] = 18 strains, disk 10 μl oil or 10 μg amphotericin B, 35° C. 24 hours
structure (smiles),measurement,setting,value
"C[C@@H]1[C@H](O)[C@@H](C)/C=C/C=C/C=C/C=C/C=C/C=C/C=C/[C@H](O[C@@H]2O[C@H](C)[C@@H](O)[C@H](N)[C@@H]2O)C[C@@H]2O[C@](O)(C[C@@H](O)C[C@@H](O)[C@H](O)CC[C@@H](O)C[C@@H](O)CC(=O)O[C@H]1C)C[C@H](O)[C@H]2C(=O)O [Amphotericin B, amphotericin B, reference compound]","inhibition rings diameter, average (including 6.0 mm of the disk)",[1]; [10],15.4 mm
same,"inhibition rings diameter, range (including 6.0 mm of the disk)",[1]; [10],10-20.5 mm
same,category of the inhibition rings,"[1]; all 18 strains, confirmed by microdilution",“sensitivity” or “intermediate sensitivity”
same,Diameters of the inhibition rings (including 6.0 mm of the disk),[2]; C. albicans 1,13.0 mm
same,Diameters of the inhibition rings (including 6.0 mm of the disk),[2]; C. albicans 2,15.5 mm
same,Diameters of the inhibition rings (including 6.0 mm of the disk),[2]; C. albicans 3,16.0 mm
same,Diameters of the inhibition rings (including 6.0 mm of the disk),[2]; C. albicans 4,19.5 mm
same,Diameters of the inhibition rings (including 6.0 mm of the disk),[2]; C. albicans 5,16.0 mm
same,Diameters of the inhibition rings (including 6.0 mm of the disk),[2]; C. albicans 6,16.0 mm
same,Diameters of the inhibition rings (including 6.0 mm of the disk),[2]; C. albicans 7,16.0 mm
same,Diameters of the inhibition rings (including 6.0 mm of the disk),[2]; C. albicans 8,20.5 mm
same,Diameters of the inhibition rings (including 6.0 mm of the disk),[2]; C. albicans 9,12.0 mm
same,Diameters of the inhibition rings (including 6.0 mm of the disk),[2]; C. albicans 10,15.0 mm
same,Diameters of the inhibition rings (including 6.0 mm of the disk),[2]; C. albicans 11,14.5 mm
same,Diameters of the inhibition rings (including 6.0 mm of the disk),[2]; C. albicans 12,16.5 mm
same,Diameters of the inhibition rings (including 6.0 mm of the disk),[2]; C. albicans 13,16.0 mm
same,Diameters of the inhibition rings (including 6.0 mm of the disk),[2]; C. albicans 14,19.0 mm
same,Diameters of the inhibition rings (including 6.0 mm of the disk),[2]; C. albicans 15,15.5 mm
same,Diameters of the inhibition rings (including 6.0 mm of the disk),[3]; C. glabrata 1,15.0 mm
same,Diameters of the inhibition rings (including 6.0 mm of the disk),[3]; C. glabrata 2,11.0 mm
same,Diameters of the inhibition rings (including 6.0 mm of the disk),[4],10.0 mm
same,MFC average,[5],0.11 µg/mL
same,MIC average,[5],0.052 µg/mL
same,MFC,[6]; C. albicans 1,0.064 µg/mL
same,MIC,[6]; C. albicans 1,0.032 µg/mL
same,MFC,[6]; C. albicans 2,0.064 µg/mL
same,MIC,[6]; C. albicans 2,0.032 µg/mL
same,MFC,[6]; C. albicans 3,0.064 µg/mL
same,MIC,[6]; C. albicans 3,0.032 µg/mL
same,MFC,[6]; C. albicans 4,0.125 µg/mL
same,MIC,[6]; C. albicans 4,0.032 µg/mL
same,MFC,[6]; C. albicans 5,0.250 µg/mL
same,MIC,[6]; C. albicans 5,0.016 µg/mL
same,MFC,[6]; C. albicans 6,0.064 µg/mL
same,MIC,[6]; C. albicans 6,0.032 µg/mL
same,MFC,[6]; C. albicans 7,0.064 µg/mL
same,MIC,[6]; C. albicans 7,0.032 µg/mL
same,MFC,[6]; C. albicans 8,0.032 µg/mL
same,MIC,[6]; C. albicans 8,0.016 µg/mL
same,MFC,[6]; C. albicans 9,0.250 µg/mL
same,MIC,[6]; C. albicans 9,0.125 µg/mL
same,MFC,[6]; C. albicans 10,0.032 µg/mL
same,MIC,[6]; C. albicans 10,0.032 µg/mL
same,MFC,[6]; C. albicans 11,0.250 µg/mL
same,MIC,[6]; C. albicans 11,0.125 µg/mL
same,MFC,[6]; C. albicans 12,0.016 µg/mL
same,MIC,[6]; C. albicans 12,≤0.016 µg/mL
same,MFC,[6]; C. albicans 13,0.125 µg/mL
same,MIC,[6]; C. albicans 13,0.064 µg/mL
same,MFC,[6]; C. albicans 14,0.125 µg/mL
same,MIC,[6]; C. albicans 14,0.032 µg/mL
same,MFC,[6]; C. albicans 15,0.064 µg/mL
same,MIC,[6]; C. albicans 15,0.032 µg/mL
same,MFC,[7]; C. glabrata 1,0.064 µg/mL
same,MIC,[7]; C. glabrata 1,0.032 µg/mL
same,MFC,[7]; C. glabrata 2,0.125 µg/mL
same,MIC,[7]; C. glabrata 2,0.125 µg/mL
same,MFC,[8],0.250 µg/mL
same,MIC,[8],0.125 µg/mL
CC1=CCC2CC1C2(C)C (stereo not drawn) [α-pinene],advantage when administered in combination with cinnamaldehyde or eugenol,[9],did not show any advantage
